Laboratory results taken from ChEMBL document CHEMBL1151757, “Synthesis, radiosynthesis, and biological evaluation of fluorine-18-labeled 2beta-carbo(fluoroalkoxy)-3beta-(3'-((Z)-2-haloethenyl)phenyl)nortropanes: candidate radioligands for in vivo imaging of the serotonin transporter with positron emission tomography” (J Med Chem, 2008).

Columns and labels:
[1] = Ratio of drug uptake in putamen to cerebellum in anesthetized cynomolgus monkey after 235 mins postinjection; type: ADME, organism-based, Macaca fascicularis; conditions: in vivo
Pons [2] = assay: Drug uptake in anesthetized cynomolgus monkey brain pons after 6.5 mins postinjection; type: ADME, organism-based, Macaca fascicularis; conditions: in vivo
Thalamus [3] = assay: Drug uptake in anesthetized cynomolgus monkey brain thalamus after 145 mins postinjection; type: ADME, organism-based, Macaca fascicularis; parameters: unit not given here; conditions: in vivo
Midbrain [4] = assay: Drug uptake in anesthetized cynomolgus monkey brain midbrain after 165 mins postinjection; type: ADME, organism-based, Macaca fascicularis; conditions: in vivo, 2.75 h
[5] = Drug uptake in anesthetized cynomolgus monkey brain occipital lobe after 35 mins postinjection; type: ADME, organism-based, Macaca fascicularis; conditions: in vivo
Medulla [6] = assay: Drug uptake in anesthetized cynomolgus monkey brain medulla after 0.5 mins postinjection; type: ADME, organism-based, Macaca fascicularis; conditions: in vivo
Thalamus [7] = assay: Drug uptake in anesthetized cynomolgus monkey brain thalamus after 0.5 mins postinjection; type: ADME, organism-based, Macaca fascicularis; conditions: in vivo
[8] = Ratio of drug uptake in pons to cerebellum in anesthetized cynomolgus monkey after 145 mins postinjection; type: ADME, organism-based, Macaca fascicularis; conditions: in vivo
Midbrain [9] = assay: Drug uptake in anesthetized cynomolgus monkey brain midbrain after 175 mins postinjection; type: ADME, organism-based, Macaca fascicularis; conditions: in vivo
Medulla [10] = assay: Drug uptake in anesthetized cynomolgus monkey brain medulla after 35 mins postinjection; type: ADME, organism-based, Macaca fascicularis; conditions: in vivo
[11] = Ratio of drug uptake in pons to cerebellum in anesthetized cynomolgus monkey after 0.5 mins postinjection; type: ADME, organism-based, Macaca fascicularis; conditions: in vivo
[12] = Ratio of drug uptake in occipital lobe to cerebellum in anesthetized cynomolgus monkey after 95 mins postinjection; type: ADME, organism-based, Macaca fascicularis; conditions: in vivo
[13] = Drug uptake in anesthetized cynomolgus monkey brain occipital lobe after 85 mins postinjection; type: ADME, organism-based, Macaca fascicularis; conditions: in vivo
Medulla [14] = assay: Drug uptake in anesthetized cynomolgus monkey brain medulla after 187.5 mins postinjection; type: ADME, organism-based, Macaca fascicularis; conditions: in vivo, 3.125 h
[15] = Drug uptake in anesthetized cynomolgus monkey brain frontal lobe after 125 mins postinjection; type: ADME, organism-based, Macaca fascicularis; conditions: in vivo
[16] = Ratio of drug uptake in midbrain to cerebellum in anesthetized cynomolgus monkey after 9.5 mins postinjection; type: ADME, organism-based, Macaca fascicularis; conditions: in vivo
Thalamus [17] = assay: Drug uptake in anesthetized cynomolgus monkey brain thalamus after 4.5 mins postinjection; type: ADME, organism-based, Macaca fascicularis; parameters: unit not given here; conditions: in vivo, 0.075 h
Pons [18] = assay: Drug uptake in anesthetized cynomolgus monkey brain pons after 15.5 mins postinjection; type: ADME, organism-based, Macaca fascicularis; conditions: in vivo
Pons [19] = assay: Drug uptake in anesthetized cynomolgus monkey brain pons after 105 mins postinjection; type: ADME, organism-based, Macaca fascicularis; conditions: in vivo, 1.75 h
Caudate [20] = assay: Drug uptake in anesthetized cynomolgus monkey brain caudate after 0.5 mins postinjection; type: ADME, organism-based, Macaca fascicularis, Caudate nucleus; conditions: in vivo
[21] = Drug uptake in anesthetized cynomolgus monkey brain frontal lobe after 235 mins postinjection; type: ADME, organism-based, Macaca fascicularis; conditions: in vivo
Putamen [22] = assay: Drug uptake in anesthetized cynomolgus monkey brain putamen after 207.5 mins postinjection; type: ADME, organism-based, Macaca fascicularis; conditions: in vivo
[23] = Ratio of drug uptake in medulla to cerebellum in anesthetized cynomolgus monkey after 95 mins postinjection; type: ADME, organism-based, Macaca fascicularis; conditions: in vivo
Medulla [24] = assay: Drug uptake in anesthetized cynomolgus monkey brain medulla after 202.5 mins postinjection; type: ADME, organism-based, Macaca fascicularis; conditions: in vivo, 3.375 h
Pons [25] = assay: Drug uptake in anesthetized cynomolgus monkey brain pons after 145 mins postinjection; type: ADME, organism-based, Macaca fascicularis; conditions: in vivo
[26] = Drug uptake in anesthetized cynomolgus monkey brain cerebellum after 4.5 mins postinjection; type: ADME, organism-based, Macaca fascicularis; conditions: in vivo, 0.075 h
[27] = Ratio of drug uptake in pons to cerebellum in anesthetized cynomolgus monkey after 95 mins postinjection; type: ADME, organism-based, Macaca fascicularis; conditions: in vivo
Thalamus [28] = assay: Drug uptake in anesthetized cynomolgus monkey brain thalamus after 165 mins postinjection; type: ADME, organism-based, Macaca fascicularis; parameters: unit not given here; conditions: in vivo, 2.75 h
Caudate [29] = assay: Drug uptake in anesthetized cynomolgus monkey brain caudate after 215 mins postinjection; type: ADME, organism-based, Macaca fascicularis, Caudate nucleus; conditions: in vivo
Midbrain [30] = assay: Drug uptake in anesthetized cynomolgus monkey brain midbrain after 115 mins postinjection; type: ADME, organism-based, Macaca fascicularis; parameters: unit not given here; conditions: in vivo
[31] = Drug uptake in anesthetized cynomolgus monkey brain frontal lobe after 187.5 mins postinjection; type: ADME, organism-based, Macaca fascicularis; conditions: in vivo, 3.125 h
Thalamus [32] = assay: Drug uptake in anesthetized cynomolgus monkey brain thalamus after 6.5 mins postinjection; type: ADME, organism-based, Macaca fascicularis; parameters: unit not given here; conditions: in vivo
Putamen [33] = assay: Drug uptake in anesthetized cynomolgus monkey brain putamen after 135 mins postinjection; type: ADME, organism-based, Macaca fascicularis; conditions: in vivo, 2.25 h
[34] = Drug uptake in anesthetized cynomolgus monkey brain occipital lobe after 45 mins postinjection; type: ADME, organism-based, Macaca fascicularis; conditions: in vivo, 0.75 h
Midbrain [35] = assay: Drug uptake in anesthetized cynomolgus monkey brain midbrain after 192.5 mins postinjection; type: ADME, organism-based, Macaca fascicularis; conditions: in vivo
Caudate [36] = assay: Drug uptake in anesthetized cynomolgus monkey brain caudate after 202.5 mins postinjection; type: ADME, organism-based, Macaca fascicularis, Caudate nucleus; conditions: in vivo, 3.375 h
Pons [37] = assay: Drug uptake in anesthetized cynomolgus monkey brain pons after 192.5 mins postinjection; type: ADME, organism-based, Macaca fascicularis; conditions: in vivo
[38] = Drug uptake in anesthetized cynomolgus monkey brain frontal lobe after 1.5 mins postinjection; type: ADME, organism-based, Macaca fascicularis; conditions: in vivo, 0.025 h
[39] = Ratio of drug uptake in pons to cerebellum in anesthetized cynomolgus monkey after 85 mins postinjection; type: ADME, organism-based, Macaca fascicularis; conditions: in vivo
Medulla [40] = assay: Drug uptake in anesthetized cynomolgus monkey brain medulla after 182.5 mins postinjection; type: ADME, organism-based, Macaca fascicularis; conditions: in vivo
[41] = Drug uptake in anesthetized cynomolgus monkey brain cerebellum after 15.5 mins postinjection; type: ADME, organism-based, Macaca fascicularis; conditions: in vivo
Midbrain [42] = assay: Drug uptake in anesthetized cynomolgus monkey brain midbrain after 145 mins postinjection; type: ADME, organism-based, Macaca fascicularis; conditions: in vivo
[43] = Drug uptake in anesthetized cynomolgus monkey brain occipital lobe after 197.5 mins postinjection; type: ADME, organism-based, Macaca fascicularis; conditions: in vivo
Putamen [44] = assay: Drug uptake in anesthetized cynomolgus monkey brain putamen after 1.5 mins postinjection; type: ADME, organism-based, Macaca fascicularis; conditions: in vivo, 0.025 h
[45] = Ratio of drug uptake in caudate to cerebellum in anesthetized cynomolgus monkey after 55 mins postinjection; type: ADME, organism-based, Macaca fascicularis; conditions: in vivo
[46] = Ratio of drug uptake in occipital lobe to cerebellum in anesthetized cynomolgus monkey after 115 mins postinjection; type: ADME, organism-based, Macaca fascicularis; conditions: in vivo
Midbrain [47] = assay: Drug uptake in anesthetized cynomolgus monkey brain midbrain after 187.5 mins postinjection; type: ADME, organism-based, Macaca fascicularis; conditions: in vivo, 3.125 h
Caudate [48] = assay: Drug uptake in anesthetized cynomolgus monkey brain caudate after 115 mins postinjection; type: ADME, organism-based, Macaca fascicularis, Caudate nucleus; conditions: in vivo
Caudate [49] = assay: Drug uptake in anesthetized cynomolgus monkey brain caudate after 9.5 mins postinjection; type: ADME, organism-based, Macaca fascicularis, Caudate nucleus; conditions: in vivo
Pons [50] = assay: Drug uptake in anesthetized cynomolgus monkey brain pons after 165 mins postinjection; type: ADME, organism-based, Macaca fascicularis; conditions: in vivo, 2.75 h
[51] = Ratio of drug uptake in midbrain to cerebellum in anesthetized cynomolgus monkey after 135 mins postinjection; type: ADME, organism-based, Macaca fascicularis; conditions: in vivo, 2.25 h
Medulla [52] = assay: Drug uptake in anesthetized cynomolgus monkey brain medulla after 15.5 mins postinjection; type: ADME, organism-based, Macaca fascicularis; conditions: in vivo
[53] = Drug uptake in anesthetized cynomolgus monkey brain cerebellum after 0.5 mins postinjection; type: ADME, organism-based, Macaca fascicularis; conditions: in vivo
[54] = Ratio of drug uptake in occipital lobe to cerebellum in anesthetized cynomolgus monkey after 105 mins postinjection; type: ADME, organism-based, Macaca fascicularis; conditions: in vivo, 1.75 h
[55] = Drug uptake in awake rhesus monkey brain frontal lobe after 75 mins postinjection; type: ADME, organism-based, Macaca mulatta; conditions: in vivo, 1.25 h
[56] = Drug uptake in awake rhesus monkey brain pons after 75 mins postinjection; type: ADME, organism-based, Macaca mulatta; conditions: in vivo, 1.25 h
[57] = Drug uptake in awake rhesus monkey brain thalamus after 10.5 mins postinjection; type: ADME, organism-based, Macaca mulatta; conditions: in vivo, 0.175 h
[58] = Drug uptake in awake rhesus monkey brain midbrain after 25 mins postinjection; type: ADME, organism-based, Macaca mulatta; conditions: in vivo
[59] = Ratio of drug uptake in pons to cerebellum in awake rhesus monkey after 10.5 mins postinjection; type: ADME, organism-based, Macaca mulatta; conditions: in vivo, 0.175 h
Pons [60] = assay: Drug uptake in anesthetized cynomolgus monkey brain pons after 205 mins postinjection; type: ADME, organism-based, Macaca fascicularis; conditions: in vivo
[61] = Drug uptake in awake rhesus monkey brain medulla after 35 mins postinjection; type: ADME, organism-based, Macaca mulatta; conditions: in vivo
[62] = Drug uptake in awake rhesus monkey brain medulla after 115 mins postinjection; type: ADME, organism-based, Macaca mulatta; conditions: in vivo
[63] = Ratio of drug uptake in caudate to cerebellum in awake rhesus monkey after 25 mins postinjection; type: ADME, organism-based, Macaca mulatta; conditions: in vivo
Caudate [64] = assay: Drug uptake in anesthetized cynomolgus monkey brain caudate after 195 mins postinjection; type: ADME, organism-based, Macaca fascicularis, Caudate nucleus; conditions: in vivo, 3.25 h
[65] = Drug uptake in awake rhesus monkey brain medulla after 10.5 mins postinjection; type: ADME, organism-based, Macaca mulatta; conditions: in vivo, 0.175 h
[66] = Drug uptake in awake rhesus monkey brain medulla after 65 mins postinjection; type: ADME, organism-based, Macaca mulatta; conditions: in vivo

SMILES: O=C(OCCC[18F])C1C2CCC(CC1c1cccc(/C=C\Br)c1)N2 (configuration not stated)
- Ratio [1]: 1.7
- Drug uptake (Pons [2]): 3.6
- Drug uptake (Thalamus [3]): 4.62
- Drug uptake (Midbrain [4]): 5.06
- Drug uptake [5]: 4.66
- Drug uptake (Medulla [6]): 0.02
- Drug uptake (Thalamus [7]): 0.01
- Ratio [8]: 1.6
- Drug uptake (Midbrain [9]): 4.91
- Drug uptake (Medulla [10]): 5.92
- Ratio [11]: 1.6
- Ratio [12]: 1.1
- Drug uptake [13]: 4.19
- Drug uptake (Medulla [14]): 4.04
- Drug uptake [15]: 2.93
- Ratio [16]: 0.9
- Drug uptake (Thalamus [17]): 2.48
- Drug uptake (Pons [18]): 4.79
- Drug uptake (Pons [19]): 4.38
- Drug uptake (Caudate [20]): 0.01
- Drug uptake [21]: 2.01
- Drug uptake (Putamen [22]): 3.65
- Ratio [23]: 1.5
- Drug uptake (Medulla [24]): 3.68
- Drug uptake (Pons [25]): 4.35
- Drug uptake [26]: 3.51
- Ratio [27]: 1.2
- Drug uptake (Thalamus [28]): 4.31
- Drug uptake (Caudate [29]): 3.62
- Drug uptake (Midbrain [30]): 5.52
- Drug uptake [31]: 2.39
- Drug uptake (Thalamus [32]): 3.71
- Drug uptake (Putamen [33]): 4.74
- Drug uptake [34]: 4.61
- Drug uptake (Midbrain [35]): 4.52
- Drug uptake (Caudate [36]): 3.64
- Drug uptake (Pons [37]): 3.48
- Drug uptake [38]: 0.25
- Ratio [39]: 1.2
- Drug uptake (Medulla [40]): 4.22
- Drug uptake [41]: 5.62
- Drug uptake (Midbrain [42]): 5.18
- Drug uptake [43]: 2.91
- Drug uptake (Putamen [44]): 0.3
- Ratio [45]: 1.1
- Ratio [46]: 1.1
- Drug uptake (Midbrain [47]): 4.65
- Drug uptake (Caudate [48]): 4.71
- Drug uptake (Caudate [49]): 3.93
- Drug uptake (Pons [50]): 3.84
- Ratio [51]: 1.9
- Drug uptake (Medulla [52]): 5.77
- Drug uptake [53]: 0.01
- Ratio [54]: 1.1

SMILES: O=C(OCC[18F])C1C2CCC(CC1c1ccc(/C=C\I)cc1)N2 (configuration not stated)
- Ratio [1]: 3.8
- Drug uptake (Pons [2]): 1.36
- Drug uptake (Thalamus [3]): 3.98
- Drug uptake (Midbrain [4]): 4.6
- Drug uptake [5]: 2.13
- Drug uptake [55]: 2.18
- Drug uptake (Medulla [6]): 0
- Drug uptake (Thalamus [7]): 0
- Ratio [8]: 2.3
- Drug uptake (Midbrain [9]): 4.61
- Drug uptake [56]: 2.75
- Drug uptake (Thalamus [17]): 1.21
- Drug uptake (Pons [18]): 2.14
- Drug uptake (Pons [19]): 3.4
- Drug uptake (Caudate [20]): 0
- Drug uptake [21]: 1.51
- Drug uptake [57]: 1.89
- Ratio [23]: 1.8
- Drug uptake (Pons [25]): 3.51
- Ratio [27]: 1.6
- Drug uptake (Thalamus [28]): 3.88
- Drug uptake [58]: 2.46
- Drug uptake (Caudate [29]): 2.81
- Drug uptake (Midbrain [30]): 4.5
- Ratio [59]: 0.9
- Drug uptake (Thalamus [32]): 1.7
- Drug uptake (Pons [60]): 3.34
- Drug uptake (Putamen [33]): 4.33
- Drug uptake [61]: 2.46
- Drug uptake [62]: 2.57
- Ratio [63]: 1.3
- Drug uptake (Midbrain [42]): 4.65
- Drug uptake (Putamen [44]): 0.11
- Ratio [46]: 1.3
- Drug uptake (Caudate [48]): 3.11
- Drug uptake (Caudate [64]): 2.85
- Drug uptake (Caudate [49]): 1.47
- Drug uptake (Pons [50]): 3.54
- Ratio [51]: 2.8
- Drug uptake (Medulla [52]): 2.67
- Drug uptake [53]: 0
- Drug uptake [65]: 1.79
- Drug uptake [66]: 2.28
